Test results taken from US20200339625A1, “NOVEL RADIOMETAL-BINDING COMPOUNDS FOR DIAGNOSIS OR TREATMENT OF PROSTATE SPECIFIC MEMBRANE ANTIGEN-EXPRESSING CANCER” (PROVINCIAL HEALTH SERVICES AUTHORITY, priority 2017, published 2020).

Tested on: mice bearing LNCaP xenografts
Experiment: Biodistribution of 177Lu-labeled compounds
Assay type: in vivo
Protocol: 1.17 SPECT/CT Imaging, Biodistribution and Endoradiotherapy Studies
SPECT/CT imaging and biodistribution were performed using NOD-scid IL2Rgammanu^null (NSG) male mice, and the endoradiotherapy study was conducted using NOD.Cg-Rag1^tm1MomII2rg^tm1WjI/SzJ (NRG) male mice. The mice were maintained and the experiments were conducted in according to the guidelines established by the Canadian Council on Animal Care and approved by Animal Ethics Committee of the University of British Columbia. Mice were anesthetized by inhalation with 2% isoflurane in oxygen, and implanted subcutaneously with 1×10^7 LNCaP cells posterior to the left shoulder. Mice were used for studies when the tumor reached 5-8 mm in diameter 5-6 weeks after inoculation.
For biodistribution studies, the mice were injected with ^177Ludabeled PSMA-617 or HTK01169 (2-4 MBq) as described above. At predetermined time points (1, 4, 24, 72, or 120 h post-injection), the mice were euthanized by CO2 inhalation. Blood was withdrawn immediately from the heart, and the organs/tissues of interest were collected. The collected organs/tissues were weighed and counted using an automated gamma counter. For the blocking study, mice were co-injected with ^177Lu-HTK01169 (2-4 MBq) and 50 nmol of the non-radioactive standard, and organs/tissues of interest were collected at 4 h post-injection.

[1] = 4 h post-injection, blocking (co-injection of 50 nmol non-radioactive standard)

## O=C([O-])CN1CCN(CC(=O)[O-])CCN(CC(=O)NCCCC[C@H](NC(=O)[C@H](CCC(=O)O)NC(=O)CCCc2ccc(I)cc2)C(=O)NC[C@H]2CC[C@H](C(=O)N[C@@H](Cc3ccc4ccccc4c3)C(=O)NCCCC[C@H](NC(=O)N[C@@H](CCC(=O)O)C(=O)O)C(=O)O)CC2)CCN(CC(=O)[O-])CC1.[177Lu+3] [^177Lu-HTK01169]
1 h post-injection
  Adrenal glands uptake: 9.94 ± 2.10 % ID/g
  Blood uptake: 16.6 ± 1.85 % ID/g
  Bone uptake: 0.93 ± 0.31 % ID/g
  Brain uptake: 0.18 ± 0.07 % ID/g
  Fat uptake: 3.20 ± 1.03 % ID/g
  Heart uptake: 3.93 ± 0.95 % ID/g
  Intestine uptake: 1.64 ± 0.20 % ID/g
  Kidneys uptake: 51.1 ± 4.07 % ID/g
  Liver uptake: 2.55 ± 0.45 % ID/g
  Lung uptake: 7.11 ± 0.98 % ID/g
  Muscle uptake: 1.39 ± 0.12 % ID/g
  Pancreas uptake: 1.77 ± 0.24 % ID/g
  Seminal uptake: 1.02 ± 0.15 % ID/g
  Spleen uptake: 10.6 ± 4.07 % ID/g
  Stomach uptake: 0.50 ± 0.15 % ID/g
  Testes uptake: 2.14 ± 0.31 % ID/g
  Tumor uptake: 13.4 ± 3.26 % ID/g
  Tumor/blood ratio: 0.81 ± 0.18
  Tumor/kidney ratio: 0.26 ± 0.05
  Tumor/muscle ratio: 9.76 ± 2.65
4 h post-injection
  Adrenal glands uptake: 9.91 ± 2.55 % ID/g
  Blood uptake: 10.2 ± 1.40 % ID/g
  Bone uptake: 0.79 ± 0.30 % ID/g
  Brain uptake: 0.16 ± 0.01 % ID/g
  Fat uptake: 2.95 ± 0.81 % ID/g
  Heart uptake: 2.50 ± 0.54 % ID/g
  Intestine uptake: 1.25 ± 0.17 % ID/g
  Kidneys uptake: 85.7 ± 7.11 % ID/g
  Liver uptake: 1.97 ± 0.05 % ID/g
  Lung uptake: 5.92 ± 0.22 % ID/g
  Muscle uptake: 0.98 ± 0.06 % ID/g
  Pancreas uptake: 1.51 ± 0.28 % ID/g
  Seminal uptake: 1.07 ± 0.62 % ID/g
  Spleen uptake: 8.05 ± 3.62 % ID/g
  Stomach uptake: 0.57 ± 0.11 % ID/g
  Testes uptake: 1.91 ± 0.63 % ID/g
  Tumor/blood ratio: 2.71 ± 0.68
  Tumor/kidney ratio: 0.32 ± 0.07
  Tumor/muscle ratio: 28.0 ± 6.92
[1]
  Adrenal glands uptake: 0.68 ± 0.24 % ID/g
  Blood uptake: 0.96 ± 0.25 % ID/g
  Bone uptake: 0.12 ± 0.04 % ID/g
  Brain uptake: 0.03 ± 0.00 % ID/g
  Fat uptake: 0.25 ± 0.13 % ID/g
  Heart uptake: 0.41 ± 0.07 % ID/g
  Intestine uptake: 0.25 ± 0.10 % ID/g
  Kidneys uptake: 5.50±1.95 % ID/g
  Liver uptake: 0.51 ± 0.08 % ID/g
  Lung uptake: 0.89 ± 0.29 % ID/g
  Muscle uptake: 0.12 ± 0.02 % ID/g
  Pancreas uptake: 0.19 ± 0.02 % ID/g
  Seminal uptake: 0.19 ± 0.13 % ID/g
  Spleen uptake: 0.61 ± 0.17 % ID/g
  Stomach uptake: 0.19 ± 0.10 % ID/g
  Testes uptake: 0.58 ± 0.14 % ID/g
  Tumor uptake: 1.70±0.28 % ID/g
  Tumor/blood ratio: 1.81 ± 0.31
  Tumor/kidney ratio: 0.32 ± 0.06
  Tumor/muscle ratio: 13.7 ± 1.47
24 h post-injection
  Adrenal glands uptake: 4.53 ± 1.10 % ID/g
  Blood uptake: 2.10 ± 0.41 % ID/g
  Bone uptake: 0.26 ± 0.05 % ID/g
  Brain uptake: 0.06 ± 0.01 % ID/g
  Fat uptake: 2.06 ± 0.71 % ID/g
  Heart uptake: 0.83 ± 0.25 % ID/g
  Intestine uptake: 0.45 ± 0.13 % ID/g
  Kidneys uptake: 125 ± 16.4 % ID/g
  Liver uptake: 1.03 ± 0.22 % ID/g
  Lung uptake: 1.98 ± 0.44 % ID/g
  Muscle uptake: 0.39 ± 0.07 % ID/g
  Pancreas uptake: 0.59 ± 0.12 % ID/g
  Seminal uptake: 0.36 ± 0.13 % ID/g
  Spleen uptake: 3.70 ± 1.67 % ID/g
  Stomach uptake: 0.34 ± 0.12 % ID/g
  Testes uptake: 1.19 ± 0.23 % ID/g
  Tumor uptake: 55.9±12.5 % ID/g
  Tumor/blood ratio: 26.7 ± 2.79
  Tumor/kidney ratio: 0.45 ± 0.13
  Tumor/muscle ratio: 142 ± 14.4
72 h post-injection
  Adrenal glands uptake: 1.65 ± 0.46 % ID/g
  Blood uptake: 0.28 ± 0.10 % ID/g
  Bone uptake: 0.11 ± 0.03 % ID/g
  Brain uptake: 0.03 ± 0.00 % ID/g
  Fat uptake: 1.34 ± 0.72 % ID/g
  Heart uptake: 0.28 ± 0.04 % ID/g
  Intestine uptake: 0.13 ± 0.06 % ID/g
  Kidneys uptake: 37.8 ± 18.7 % ID/g
  Liver uptake: 0.46 ± 0.12 % ID/g
  Lung uptake: 0.51 ± 0.17 % ID/g
  Muscle uptake: 0.11 ± 0.02 % ID/g
  Pancreas uptake: 0.15 ± 0.02 % ID/g
  Seminal uptake: 0.12 ± 0.04 % ID/g
  Spleen uptake: 1.13 ± 0.32 % ID/g
  Stomach uptake: 0.17 ± 0.12 % ID/g
  Testes uptake: 0.62 ± 0.11 % ID/g
  Tumor uptake: 53.6 ± 8.06 % ID/g
  Tumor/blood ratio: 204 ± 63.5
  Tumor/kidney ratio: 1.63 ± 0.58
  Tumor/muscle ratio: 519 ± 91.5
120 h post-injection
  Adrenal glands uptake: 0.65 ± 0.21 % ID/g
  Blood uptake: 0.06 ± 0.03 % ID/g
  Bone uptake: 0.08 ± 0.01 % ID/g
  Brain uptake: 0.03 ± 0.00 % ID/g
  Fat uptake: 0.73 ± 0.13 % ID/g
  Heart uptake: 0.16 ± 0.07 % ID/g
  Intestine uptake: 0.10 ± 0.06 % ID/g
  Kidneys uptake: 8.63 ± 2.51 % ID/g
  Liver uptake: 0.34 ± 0.23 % ID/g
  Lung uptake: 0.17 ± 0.04 % ID/g
  Muscle uptake: 0.04 ± 0.01 % ID/g
  Pancreas uptake: 0.07 ± 0.02 % ID/g
  Seminal uptake: 0.08 ± 0.04 % ID/g
  Spleen uptake: 1.18 ± 0.55 % ID/g
  Stomach uptake: 0.21 ± 0.20 % ID/g
  Testes uptake: 0.40 ± 0.05 % ID/g
  Tumor uptake: 56.4±13.2 % ID/g
  Tumor/blood ratio: 1146 ± 722
  Tumor/kidney ratio: 7.12 ± 3.11
  Tumor/muscle ratio: 1708 ± 718
LNCaP tumor xenografts
  fold higher peak tumor uptake than 177Lu-PSMA-617: 3.7 fold
mouse, in vivo
  blood clearance (qualitative): relatively slower than ^177Lu-PSMA-617
Peak over 1-120 h
  peaked tumor uptake: 55.9±12.5 % ID/g
